From patent US10918623B2, “Methods of treating influenza” (Biotron Limited, priority 2017, dated 2021) come the findings set out here.

pEC50: −log10 of the molar value.

Format in all cases: cell-based
One assay deals with Influenza B.
For assay [1], the system named is PR8 4C [A30T] M2 mutant amantadine resistant influenza A virus.
Assay [2] concerns SHIV-1M2 (ion channel sequence of influenza A M2).

Consider `Cn1cc(-c2cccc3cc(C(=O)NC(=N)N)ccc23)cn1` [BIT225, N-carbamimidoyl-5-(1-methyl-1H-pyrazol-4-yl)-2-naphthamide], for which the Comments entry with Influenza B is on record as “Active”. In addition, in assay [1], the pEC50 is around 5.00 and the EC90 was 18 µM. For the same compound, in assay [2], the “Virus released into the culture supernatant as measured by viral p27 protein” value is listed as “reduced virus released”.

Regarding `NC12CC3CC(CC(C3)C1)C2` [amantadine, reference compound], the “Shift in drug sensitivity caused by the A30T mutation in M2” value in assay [1] is reported as “large shift in drug sensitivity”.

What is called pEC50 is the EC50 on a negative log10 scale, so that one unit is a factor of ten. Low values mean a large EC50, high ones a small EC50. Usually EC90 stands for the point of the concentration-response curve where the effect stands at 90%. Low readings indicate an effect from little substance, high ones a need for much substance.
